Laboratory results: patent US20100063085A1, “METHOD OF TREATING LEARNING IMPAIRMENT IN DOWN'S SYNDROME SUBJECTS” (University Court of The University of Dundee, priority 2008, published 2010)
Like-named read-outs stand apart in the source and are kept apart here.

How the values were obtained:
Assay in all cases: biochemical
MAPKAP-K3 = MAPKAP-K3 (Homo sapiens, UniProt Q16644); conditions: read-out: MAPKAP-K3 activity as percentage of control without inhibitor
Description: (§1) All assays (25.5 μl) were carried out at room temperature (21° C.) and were linear with respect to time and enzyme concentrations under the conditions used. Assays were performed for 30 minutes except assays for LCK and PKB which were performed for 15 minutes using Multidrop Micro reagent dispensers (Thermo Electron Corporation, Waltham, Mass. 02454, USA) in a 96-well format. The concentration of […] [γ-^33P] ATP (800 cpm/pmol) in the assays was one of three concentrations (5, 20 or 50 μM) in order to be at or below Km for ATP for the enzyme. Assays were initiated with MgATP and stopped by addition of 5 μl of 0.5M orthophosphoric acid. Assays were then harvested onto P81 filterplates using a unifilter harvester (PerkinElmer, Boston, Mass. 02118, USA), with a wash buffer of 50 mM orthophosphoric acid. Filterplates were then air dried overnight. 10 μl of Microscint O was added per well prior to counting for radioactivity.
(§2) The following kinases were assayed against the substrates indicated. Aurora B was assayed against the substrate peptide […] (300 μM), ERK8 and MST-2 were both assayed against MBP (0.33 mg/ml). IKKβ was assayed against the substrate peptide […] (300 μM), JNK3 was assayed against 3 μM ATF2[19-96]. MAPKAP-K3 and PKD1 were both assayed against […] (30 μM), MARK3 was assayed against CHKtide ([…]) substrate peptide (300 μM). MNK1 and MNK2 were both assayed against eIF4E protein (0.5 mg/ml). NEK7 was assayed against […] (300 μM), PIM2 was assayed against […] (300 μM), ΔPH PKBβ-S474D was assayed against Crosstide (30 μM), PLK1 was assayed against […] (300 μM). PRK2 was assayed against Long S6 peptide, […] (30 μM), RSK2 was assayed against […] (30 μM), SRC was assayed against cdc2 peptide, […], (300 μM) and SRPK1 was assayed against peptide […] (300 μM). All enzymes were diluted in 50 mM Tris/HCl pH 7.5, 0.1 mM EGTA, 1 mg/ml BSA, 0.1% β-mercaptoethanol buffer and assayed in an incubation containing 50 mM Tris/HCl pH7.5, 0.1 mM EGTA, 0.1% β-mercaptoethanol, CAMK-1 (5-20 mU) diluted in 50 mM Tris/HCl pH 7.5, 0.1 mM EGTA, 1 mg/ml BSA, 0.1% β-mercaptoethanol is assayed against substrate peptide […] in an incubation containing 50 mM Tris/HCl pH 7.5, 0.1 mM EGTA, 0.5 mM CaCl2, 0.3 μM calmodulin, 0.1% β-mereaptoethanol, 300 μM substrate peptide, 10 mM magnesium acetate and 0.05 mM [^33P-γ-ATP] (500-1000 cpm/pmole). EF2K (5-20 mU) diluted in 50 mM Hepes pH 6.6, 0.1% β-mercaptoethanol, 1 mg/ml BSA is assayed against a substrate peptide […] in an incubation containing 50 mM Hepes pH 6.6, 0.2 mM CaCl2, 0.3 μM Calmodulin, 0.05% b-mercaptoethanol, 300 μM substrate peptide, 10 mM magnesium acetate and 0.05 mM [^33P-γ-ATP] (500-1000 cpm/pmole).

MNK1 = MNK1 (Homo sapiens, UniProt Q9BUB5); conditions: read-out: MNK1 activity as percentage of control without inhibitor
Description: as §1, §2

Aurora B = Aurora B (Homo sapiens, UniProt Q96GD4); conditions: read-out: Aurora B activity as percentage of control without inhibitor
Description: as §1, §2

IKKb = target: T1, IKKb (Homo sapiens, UniProt O14920); conditions: read-out: IKKb activity as percentage of control without inhibitor
T1 sequence (O14920 1-756): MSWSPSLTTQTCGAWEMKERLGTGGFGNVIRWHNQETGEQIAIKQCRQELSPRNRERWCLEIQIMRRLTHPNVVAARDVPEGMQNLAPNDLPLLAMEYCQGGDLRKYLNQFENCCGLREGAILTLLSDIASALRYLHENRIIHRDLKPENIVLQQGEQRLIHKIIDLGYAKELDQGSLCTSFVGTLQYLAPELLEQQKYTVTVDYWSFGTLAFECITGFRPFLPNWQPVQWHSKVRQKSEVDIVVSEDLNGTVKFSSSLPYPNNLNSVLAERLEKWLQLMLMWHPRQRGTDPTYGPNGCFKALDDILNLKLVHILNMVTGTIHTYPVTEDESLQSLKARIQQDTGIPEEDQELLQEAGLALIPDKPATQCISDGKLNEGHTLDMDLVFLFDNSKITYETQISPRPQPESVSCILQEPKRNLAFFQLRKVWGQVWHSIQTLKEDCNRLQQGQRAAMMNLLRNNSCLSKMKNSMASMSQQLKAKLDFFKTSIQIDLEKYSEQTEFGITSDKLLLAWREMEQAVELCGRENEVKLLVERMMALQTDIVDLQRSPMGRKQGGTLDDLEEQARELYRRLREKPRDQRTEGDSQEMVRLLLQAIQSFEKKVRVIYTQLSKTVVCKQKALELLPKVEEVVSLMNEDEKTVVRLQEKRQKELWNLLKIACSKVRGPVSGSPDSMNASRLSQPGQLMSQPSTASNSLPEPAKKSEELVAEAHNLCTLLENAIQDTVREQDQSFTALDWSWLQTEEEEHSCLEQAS
Description: as §1, §2

Aurora B, sequence (Q96GD4 whole entry): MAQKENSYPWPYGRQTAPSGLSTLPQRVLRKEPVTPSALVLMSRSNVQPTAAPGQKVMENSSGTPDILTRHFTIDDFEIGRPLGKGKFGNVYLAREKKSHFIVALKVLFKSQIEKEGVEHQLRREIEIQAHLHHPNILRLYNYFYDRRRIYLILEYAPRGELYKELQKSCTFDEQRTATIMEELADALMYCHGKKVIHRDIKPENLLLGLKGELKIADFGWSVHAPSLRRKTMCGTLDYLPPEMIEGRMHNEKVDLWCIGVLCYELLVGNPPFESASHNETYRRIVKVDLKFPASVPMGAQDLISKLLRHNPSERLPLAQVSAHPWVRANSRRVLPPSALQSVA
MNK1, sequence (Q9BUB5 whole entry, species assumed): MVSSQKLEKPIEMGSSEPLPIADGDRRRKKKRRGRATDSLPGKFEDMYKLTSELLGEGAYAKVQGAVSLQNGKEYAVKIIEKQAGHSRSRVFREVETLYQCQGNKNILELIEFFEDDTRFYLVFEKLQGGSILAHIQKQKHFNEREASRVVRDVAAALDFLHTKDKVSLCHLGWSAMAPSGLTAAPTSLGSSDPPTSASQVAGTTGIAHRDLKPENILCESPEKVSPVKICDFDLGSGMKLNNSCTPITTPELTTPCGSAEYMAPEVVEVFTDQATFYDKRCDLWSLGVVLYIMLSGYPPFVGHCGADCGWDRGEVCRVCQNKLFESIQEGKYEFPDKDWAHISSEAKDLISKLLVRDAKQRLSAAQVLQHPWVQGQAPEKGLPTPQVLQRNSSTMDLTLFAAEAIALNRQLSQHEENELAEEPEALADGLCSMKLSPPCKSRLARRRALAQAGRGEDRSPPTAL
MAPKAP-K3, sequence (Q16644 whole entry, species assumed): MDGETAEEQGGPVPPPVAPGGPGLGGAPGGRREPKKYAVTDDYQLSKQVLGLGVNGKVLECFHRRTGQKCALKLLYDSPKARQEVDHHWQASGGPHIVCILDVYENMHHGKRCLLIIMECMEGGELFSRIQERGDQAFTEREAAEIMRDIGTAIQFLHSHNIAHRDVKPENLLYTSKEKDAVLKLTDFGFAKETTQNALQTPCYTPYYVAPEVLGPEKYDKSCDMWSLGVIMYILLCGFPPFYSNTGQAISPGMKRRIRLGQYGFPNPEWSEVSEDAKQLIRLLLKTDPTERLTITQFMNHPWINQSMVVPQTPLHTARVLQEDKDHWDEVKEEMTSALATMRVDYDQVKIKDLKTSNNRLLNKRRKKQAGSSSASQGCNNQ

Row | SMILES | remaining activity at 1 µM (MAPKAP-K3; inhibitor 1 μM) [%] | remaining activity at 10 µM (MAPKAP-K3; inhibitor 10 μM) [%] | remaining activity at 1 µM (MNK1; inhibitor 1 μM) [%] | remaining activity at 10 µM (MNK1; inhibitor 10 μM) [%] | remaining activity at 1 µM (Aurora B; inhibitor 1 μM) [%] | remaining activity at 10 µM (Aurora B; inhibitor 10 μM) [%] | remaining activity at 1 µM (IKKb; inhibitor 1 μM) [%] | remaining activity at 10 µM (IKKb; inhibitor 10 μM) [%] | remaining activity at 1 µM (MAPKAP-K3) [%] | remaining activity at 10 µM (MAPKAP-K3) [%] | remaining activity at 1 µM (MNK1) [%] | remaining activity at 10 µM (MNK1) [%] | remaining activity at 1 µM (Aurora B) [%] | remaining activity at 10 µM (Aurora B) [%] | remaining activity at 1 µM (IKKb) [%] | remaining activity at 10 µM (IKKb) [%]
1 | COc1ccc2c3c([nH]c2c1)C(C)=NCC3 [Harmaline] | 79 | 82 | 89 | 82 | 98 | 112 | 78 | 82 |  |  |  |  |  |  |  | 
2 | CC1=NCCc2c1[nH]c1cc(O)ccc21 [Harmalol] | 95 | 88 | 80 | 48 | 110 | 83 | 93 | 69 |  |  |  |  |  |  |  | 
3 | COc1ccc2c(c1)[nH]c1c(C)nccc12 [Harmine] |  |  |  |  |  |  |  |  | 89 | 93 | 84 | 52 | 100 | 102 | 97 | 73
